Where two headings read alike, the source gives them in different places.
Settings: drug-related
Text: The primary objective was to define the maximum tolerated dose (MTD). Secondary objectives included assessments for safety, tolerability, pharmacokinetic (PK) profile, and preliminary antitumor activity.
Patients had histologically documented locally advanced or metastatic solid tumors harboring an activating PIK3CA mutation or amplification, PTEN loss of function, c-MET activation, [16, 17] […] Other key inclusion criteria included age ≥ 18 years, Eastern Cooperative Oncology Group performance status (ECOG-PS) ≤2, adequate organ function, measurable or non-measurable disease as determined by Response Evaluation Criteria in Solid Tumors (RECIST) version 1.1.
The starting dose for CLR457 was 5 mg QD, based on preclinical toxicology studies in accordance with ICH guidelines, and was administered at the same time each day ±2 h in a fasted state. Various doses were planned up to 300 mg QD until MTD determination.
Safety was evaluated by incidence, nature, severity, and relatedness of adverse events (AEs), and graded according to National Cancer Institute - Common Terminology Criteria for Adverse Events (NCI CTCAE) v4.0.3. DLTs were defined as any hematologic or non-hematologic ≥ Grade 3 AE assessed as possibly related to CLR457 that occurred within the first cycle (28 days) of treatment. In addition, uncontrolled (> 14 days) Grade 2 rash or hyperglycemia were also considered DLTs. All AEs regardless of attribution were collected until 30 days following the last administration of treatment or study discontinuation/termination.
Descriptive methods were used to tabulate toxicity and response endpoints in the clinical trial. All patients treated with CLR457 were included for safety. […] Dose escalation was guided by an adaptive Bayesian logistic regression model (BLRM) incorporating the escalation with overdose control (EWOC) principle. […] The study data (including DLTs during cycle 1 and other safety and PK data) were reviewed by the sponsor and trial investigators at each dose level. […] The Full Analysis Set (FAS) included all patients who received at least one dose of CLR457. Safety set included all patients who received at least one dose of CLR457 and had at least one valid post-baseline assessment. The Dose-determining set (DDS) included all patients from the safety set who either met the following minimum exposure criterion and had sufficient safety evaluations, or experienced a DLT during Cycle 1 (the first 28 days of dosing). The Pharmacokinetic analysis set included all patients who had at least one blood sample providing evaluable PK data.

In the case of `C[C@H]1OC(=O)N(c2cc(-c3cnc(N)nc3C(F)(F)F)nc(N3CCOCC3)n2)[C@H]1CO` [CLR457], the “Decreased neutrophil count, All Grade” value (40 mg, N = 5) is reported as 0 n (%), the “Decreased neutrophil count, Grade ≥ 3” value (40 mg, N = 5) is reported as 0 n (%) and the “Dehydration, All Grade” value (40 mg, N = 5) is reported as 0 n (%). The “Dehydration, Grade ≥ 3” value (40 mg, N = 5) was 0 n (%), the “Diarrhea, All Grade” value (40 mg, N = 5) was 3 (60.0) n (%) and the “Diarrhea, Grade ≥ 3” value (40 mg, N = 5) was 0 n (%). For the same molecule, the “Dry mouth, All Grade” value (40 mg, N = 5) was 0 n (%), the “Dry mouth, Grade ≥ 3” value (40 mg, N = 5) was 0 n (%) and the “Dry skin, All Grade” value (40 mg, N = 5) was 0 n (%). The “Dry skin, Grade ≥ 3” value (40 mg, N = 5) was 0 n (%), the “Dysgeusia, All Grade” value (40 mg, N = 5) was 1 (20.0) n (%) and the “Dysgeusia, Grade ≥ 3” value (40 mg, N = 5) was 0 n (%). For the same molecule, the “Fatigue, All Grade” value (40 mg, N = 5) was 1 (20.0) n (%), the “Fatigue, Grade ≥ 3” value (40 mg, N = 5) was 0 n (%) and the “Headache, All Grade” value (40 mg, N = 5) was 0 n (%). For the same molecule, the “Headache, Grade ≥ 3” value (40 mg, N = 5) was 0 n (%), the “Hyperglycemia, All Grade” value (40 mg, N = 5) was 2 (40.0) n (%) and the “Hyperglycemia, Grade ≥ 3” value (40 mg, N = 5) was 0 n (%). For the same molecule, the “Hypomagnesaemia, All Grade” value (40 mg, N = 5) was 0 n (%), the “Hypomagnesaemia, Grade ≥ 3” value (40 mg, N = 5) was 0 n (%) and the “Maculo-papular rash, All Grade” value (40 mg, N = 5) was 2 (40.0) n (%). For the same molecule, the “Maculo-papular rash, Grade ≥ 3” value (40 mg, N = 5) was 2 (40.0) n (%), the “Nausea, All Grade” value (40 mg, N = 5) was 2 (40.0) n (%) and the “Nausea, Grade ≥ 3” value (40 mg, N = 5) was 0 n (%). For the same molecule, the “Pneumonitis, All Grade” value (40 mg, N = 5) was 0 n (%), the “Pneumonitis, Grade ≥ 3” value (40 mg, N = 5) was 0 n (%) and the “Pruritus, All Grade” value (40 mg, N = 5) was 1 (20.0) n (%). For the same molecule, the “Pruritus, Grade ≥ 3” value (40 mg, N = 5) was 0 n (%), the “Pyrexia, All Grade” value (40 mg, N = 5) was 0 n (%) and the “Pyrexia, Grade ≥ 3” value (40 mg, N = 5) was 0 n (%). For the same molecule, the “Rash, All Grade” value (40 mg, N = 5) was 0 n (%), the “Rash, Grade ≥ 3” value (40 mg, N = 5) was 0 n (%) and the “Stomatitis, All Grade” value (40 mg, N = 5) was 3 (60.0) n (%). For the same molecule, the “Stomatitis, Grade ≥ 3” value (40 mg, N = 5) was 0 n (%), the “Vomiting, All Grade” value (40 mg, N = 5) was 1 (20.0) n (%) and the “Vomiting, Grade ≥ 3” value (40 mg, N = 5) was 0 n (%). The “Weight decreased, All Grade” value (40 mg, N = 5) was 1 (20.0) n (%), the “Weight decreased, Grade ≥ 3” value (40 mg, N = 5) was 0 n (%) and the “Asthenia, Grade ≥ 3” value (70 mg, N = 6) was 0 n (%). The “Chills, All Grade” value (70 mg, N = 6) was 0 n (%), the “Chills, Grade ≥ 3” value (70 mg, N = 6) was 0 n (%) and the “Colitis, All Grade” value (70 mg, N = 6) was 1 (16.7) n (%). The “Colitis, Grade ≥ 3” value (70 mg, N = 6) was 1 (16.7) n (%), the “Cough, All Grade” value (70 mg, N = 6) was 0 n (%) and the “Cough, Grade ≥ 3” value (70 mg, N = 6) was 0 n (%). The “Decreased appetite, All Grade” value (70 mg, N = 6) was 2 (33.3) n (%), the “Decreased appetite, Grade ≥ 3” value (70 mg, N = 6) was 0 n (%) and the “Decreased neutrophil count, All Grade” value (70 mg, N = 6) was 1 (16.7) n (%). The “Decreased neutrophil count, Grade ≥ 3” value (70 mg, N = 6) was 0 n (%), the “Dehydration, All Grade” value (70 mg, N = 6) was 1 (16.7) n (%) and the “Dehydration, Grade ≥ 3” value (70 mg, N = 6) was 1 (16.7) n (%). For the same molecule, the “Diarrhea, All Grade” value (70 mg, N = 6) was 4 (66.7) n (%), the “Diarrhea, Grade ≥ 3” value (70 mg, N = 6) was 1 (16.7) n (%) and the “Dry mouth, All Grade” value (70 mg, N = 6) was 1 (16.7) n (%). For the same molecule, the “Dry mouth, Grade ≥ 3” value (70 mg, N = 6) was 0 n (%), the “Dry skin, All Grade” value (70 mg, N = 6) was 1 (16.7) n (%) and the “Dry skin, Grade ≥ 3” value (70 mg, N = 6) was 0 n (%). The “Dysgeusia, All Grade” value (70 mg, N = 6) was 0 n (%), the “Dysgeusia, Grade ≥ 3” value (70 mg, N = 6) was 0 n (%) and the “Fatigue, All Grade” value (70 mg, N = 6) was 1 (16.7) n (%). The “Fatigue, Grade ≥ 3” value (70 mg, N = 6) was 0 n (%), the “Headache, All Grade” value (70 mg, N = 6) was 1 (16.7) n (%) and the “Headache, Grade ≥ 3” value (70 mg, N = 6) was 0 n (%). For the same molecule, the “Hyperglycemia, All Grade” value (70 mg, N = 6) was 1 (16.7) n (%), the “Hyperglycemia, Grade ≥ 3” value (70 mg, N = 6) was 0 n (%) and the “Hypomagnesaemia, All Grade” value (70 mg, N = 6) was 1 (16.7) n (%). For the same molecule, the “Hypomagnesaemia, Grade ≥ 3” value (70 mg, N = 6) was 0 n (%), the “Maculo-papular rash, All Grade” value (70 mg, N = 6) was 2 (33.3) n (%) and the “Maculo-papular rash, Grade ≥ 3” value (70 mg, N = 6) was 1 (16.7) n (%). The “Nausea, All Grade” value (70 mg, N = 6) was 2 (33.3) n (%), the “Nausea, Grade ≥ 3” value (70 mg, N = 6) was 0 n (%) and the “Pneumonitis, All Grade” value (70 mg, N = 6) was 0 n (%). The “Pneumonitis, Grade ≥ 3” value (70 mg, N = 6) was 0 n (%), the “Pruritus, All Grade” value (70 mg, N = 6) was 1 (16.7) n (%) and the “Pruritus, Grade ≥ 3” value (70 mg, N = 6) was 0 n (%). The “Pyrexia, All Grade” value (70 mg, N = 6) was 1 (16.7) n (%), the “Pyrexia, Grade ≥ 3” value (70 mg, N = 6) was 0 n (%) and the “Rash, All Grade” value (70 mg, N = 6) was 2 (33.3) n (%). For the same molecule, the “Rash, Grade ≥ 3” value (70 mg, N = 6) was 1 (16.7) n (%), the “Stomatitis, All Grade” value (70 mg, N = 6) was 2 (33.3) n (%) and the “Stomatitis, Grade ≥ 3” value (70 mg, N = 6) was 0 n (%). For the same molecule, the “Vomiting, All Grade” value (70 mg, N = 6) was 2 (33.3) n (%), the “Vomiting, Grade ≥ 3” value (70 mg, N = 6) was 0 n (%) and the “Weight decreased, All Grade” value (70 mg, N = 6) was 1 (16.7) n (%). For the same molecule, the “Weight decreased, Grade ≥ 3” value (70 mg, N = 6) was 0 n (%), the “Asthenia, Grade ≥ 3” value (100 mg, N = 11) was 0 n (%) and the “Chills, All Grade” value (100 mg, N = 11) was 2 (18.2) n (%). The “Chills, Grade ≥ 3” value (100 mg, N = 11) was 0 n (%), the “Colitis, All Grade” value (100 mg, N = 11) was 1 (9.1) n (%) and the “Colitis, Grade ≥ 3” value (100 mg, N = 11) was 1 (9.1) n (%). The “Cough, All Grade” value (100 mg, N = 11) was 2 (18.2) n (%), the “Cough, Grade ≥ 3” value (100 mg, N = 11) was 0 n (%) and the “Decreased appetite, All Grade” value (100 mg, N = 11) was 4 (36.4) n (%). For the same molecule, the “Decreased appetite, Grade ≥ 3” value (100 mg, N = 11) was 0 n (%), the “Decreased neutrophil count, All Grade” value (100 mg, N = 11) was 1 (9.1) n (%) and the “Decreased neutrophil count, Grade ≥ 3” value (100 mg, N = 11) was 1 (9.1) n (%).

Reference: paper PMC6440935, “Characterization and phase I study of CLR457, an orally bioavailable pan-class I PI3-kinase inhibitor” (Investigational New Drugs, 2018)
